In patent US5399586A, “Treatment of mammals afflicted with tumors with compounds having RXR retinoid receptor agonist activity” (Allergan, Inc., priority 1993, dated 1995):
Like-named read-outs stand apart in the source and are kept apart here.

Experiments:
[1] = system: chimeric RXRα receptor protein; test: Cationic Liposome Mediated Transfection Assay, RXRα; type: cell-based
Method: (§1) The above-mentioned Cationic Liposome Mediated Transfection Assay assay by which the activity of a test compound as a potential agonist of the RXR and RAR receptor sites is determined, is performed substantially as reported by Feigner P. L. and Holm M. (1989) Focus, 11-2, and is described below first in principle and thereafter in the form of specific instructions how to perform the assay.
(§2) In connection with this assay it is known that retinoic acid receptors arena member of the steroid/thyroid receptor super family and that they contain domains which are interchangeable within individual receptors. Thus, plasmids for chimeric retinoid receptors containing estrogen DNA binding domain and estrogen response element chloramphenicol acetyl-transferase enzyme are constructed and are grown in specific cultured bacteria. These plasmids respectively code for chimeric RARα, RARβ, RARγ, RXRα receptor proteins, and for the chloramphenicol acetyl A transferase (CAT) enzyme protein. The bacteria with these plasmids are obtainable in accordance with the procedure set forth in the article titled "Nuclear Retinoic Acid Receptors: Cloning, Analysis, and Function", M. Pfahl et al , Methods in Enzymology 189, p 256-270 (1990) which is incorporated herein by reference. The detailed procedure how to isolate the DNA plasmids from the respective bacteria is also set forth below in detail, in the form of specific instructions under the title "Supercoiled Plasmid Isolation".
Thus, in accordance with the test procedure, DNA plasmid which codes for one of the chimeric RARα, RARβ, RARγ, or RXRα receptor proteins is transfected into cultures of HeLa cells. It is for this purpose that HeLa cells are grown in a medium during the first day of the assay detailed below as the "Cationic Liposome Mediated Transfection Assay". In the transfection procedure, which is performed during the second day of the transfection assay, the DNA plasmid coding for the CAT enzyme is also added to each cell culture, in addition to the respective chimeric RARα, or RARβ etc. coding plasmid. As is known and will be readily understood by those skilled in the art, especially in view of the above-cited M. Pfahl et al. article, chimeric retinoid receptors involved in this assay include a ligand binding domain which recognizes and binds specific agonist molecules, such as retinoic acid and analogs. These chimeric protein receptors (which were constructed in accordance with the teachings of the M. Pfahl. et al, article) also contain a a DNA binding domain, which is capable of binding to the "estrogen response element" (a DNA fragment) attached to the DNA plasmid coding for the CAT enzyme. […]

[2] = system: RAR and RXR receptor sites; test: RAR versus RXR agonist specificity (in words); type: cell-based; details: result in words
Method: The data obtained in the assay are evaluated and expressed as follows. For each test compound and for each subspecies of the RAR receptors a graph (or the mathematical equivalent of a graph) is prepared where the "counts per minute" (cpm) obtained in the scintillation counter measurements are plotted (on the y axis) against the concentration of the test compound. A similar graph (or mathematical equivalent) is prepared for retinoic acid. […] This is illustrated in the graphs of FIG. 1 and FIG. 3.
This reference compound is a known agonist of the RXRα receptor site.

HL-60 cdm-1 cells [3] = test: Assay 1: HL-60 cdm-1 cell count and microscopy after 72 hours; type: cell-based, human; details: 1 uM; for cell counts: control 5.1 × 10^+5 / ml; for inspection of microscope slides: versus control
Excerpt: Sedimented cells were air dried, fixed in absolute methanol, stained with a Diff-quick reagent kit, mounted in Permount and visualized by brightfield light microscopy.

[4] = system: human myeloid leukemia (HL-60 cdm1-1) cells; test: Induction of apoptotic cell death in HL-60 cdm-1 cells (general statement); type: cell-based; details: compared with ethanol control
Method: In the assay, the human myeloid leukemia (HL-60 cdm1-1) cells are grown in cultures, and an RXR agonist compound, such as Compound 1 (AGN 191701) or Compound 3 (AGN 191659), is added to the culture.

[5] = system: chimeric RARβ receptor protein; test: Cationic Liposome Mediated Transfection Assay, RARβ; type: cell-based; details: Table 1; 50% of maximum CAT activity of all-trans retinoic acid; HeLa cells
Method: as §1, §2
(§3) Thus, in accordance with the test procedure, DNA plasmid which codes for one of the chimeric RARα, RARβ, RARγ, or RXRα receptor proteins is transfected into cultures of HeLa cells. […] As is known and will be readily understood by those skilled in the art, especially in view of the above-cited M. Pfahl et al. article, chimeric retinoid receptors involved in this assay include a ligand binding domain which recognizes and binds specific agonist molecules, such as retinoic acid and analogs. […]

[6] = system: chimeric RARγ receptor protein; test: Cationic Liposome Mediated Transfection Assay, RARγ; type: cell-based; details: Table 1; 50% of maximum CAT activity of all-trans retinoic acid; HeLa cells
Method: as §1, §2, §3

[7] = system: chimeric RARα receptor protein; test: Cationic Liposome Mediated Transfection Assay, RARα; type: cell-based; details: Table 1; 50% of maximum CAT activity of all-trans retinoic acid; HeLa cells
Method: as §1
In connection with this assay it is known that retinoic acid receptors arena member of the steroid/thyroid receptor super family and that they contain domains which are interchangeable within individual receptors. Thus, plasmids for chimeric retinoid receptors containing estrogen DNA binding domain and estrogen response element chloramphenicol acetyl-transferase enzyme are constructed and are grown in specific cultured bacteria. […]
as §3

HL-60 cdm-1 cells [8] = test: Assay 3: morphology of HL-60 cdm-1 cells at 4 hours, 48 hours, 6 days; type: cell-based, human; details: 3 μl of 1 mM stock in 3 ml
Method: HL-60 cdm-1 cells were plated in a 6-well tissue culture plate (Falcon) in 3 ml of media (RPMI-1640 containing bovine insulin 5 mg/L, human transferrin 5 mg/L and Na Selenite 5 μg/L) at a density of 1×10^5 cells/ml. Duplicate wells received either ethanol (3 μl) or 3 μl of a stock solution of AGN 191701 (Compound 1, 1 mM in ethanol). The cells were cultured in a humidified incubator (5% CO2) at 37° C. in the dark for either 4 hours, 48 hours or 6 days. At the indicated times an aliquot of the cells (50 μl) was sedimented onto a microscope slide using a cytospin centrifuge. Sedimented cells were air dried, fixed in absolute methanol, stained with a Diffquick reagent kit, mounted in permount and visualized by brightfield light microscopy.

HL-60 cdm-1 cells [9] = test: Assay 2: DNA fragmentation (laddering) in HL-60 cdm-1 cells; type: cell-based, human; details: 1 μM, 48 hours; 1% agarose gel
Method: HL-60 cdm-1 cells were placed in a T-25 tissue culture flask in 8 ml of media (RPMI-1640 containing bovine insulin 5 mg/L, human transferin 5 mg/L and Na Selenite 5 μg/L) at a density of 2×10^5 cells/ml. AGN 191701 (Compound 1) was added to a final concentration of 1 μM (8 μl of a 1 mM stock solution) and the cells were cultured in a humidified incubator (5% CO2) at 37° C. in the dark for 48 hours. The media and cells were removed from the flask, the cells were pelleted (1100 rpm/7 min Beckman desk top centrifuge), the pellet was washed once with phosphate buffered saline (PBS) and then the pelleted cells were lysed by the addition of 200 μl of a solution containing 20 mM Tris-HCl pH 7.4, 0.4 mM EDTA, 0.4% Triton X-100. The lysate was centrifuged for 5 minutes in a microfuge (14,000 rpm) and the supernatant adjusted to a final concentration of 0.5M NaCl and 50% isopropanol. The solution was allowed to precipitate overnight at -20° C. and the precipitate that formed was pelleted in a microfuge (10 min, 14,000 rpm). The pellet was washed once in 70% ethanol, it was resuspended in 50 μl Tris EDTA (10 mM Tris HCl ph 7.4, 0.4 mM EDTA) and mixed with gel loading buffer. […] DNA was detected by ethidium bromide staining followed by visualization and photography under a UV lamp.

[10] = Table 1; 50% of maximum CAT activity of AGN 191440; HeLa cells; read-out: EC50 RXRα

C/C(=C\c1ccc(C(=O)O)cc1)c1ccc2c(c1)C(C)(C)CCC2(C)C [Compound 4, reference compound]
EC50 ([1]; read-out: EC50 RXRα; Table 1; 50% of maximum CAT activity of AGN 191440; HeLa cells): > 10000 nM | RAR / RXR agonist specificity [2]: specific RAR agonist | activity at RXR receptor sites [2]: not active at RXR receptor sites | cell counts (HL-60 cdm-1 cells [3]): 460000 mL⁻¹ | inspection of microscope slides (HL-60 cdm-1 cells [3]): no difference between the control | apoptotic cell death [4]: not active and not

C/C(=C\c1ccc(C(=O)O)s1)c1cc2c(cc1C)C(C)(C)CCC2(C)C [Compound 3, 2-[(E)-2-(5,6,7,8-tetrahydro-3,5,5,8-pentamethylnaphthalen-2-yl)propen-1-yl]-5-thiophenecarboxylic acid]
EC50 [1, 10]: 11.2 nM | RAR / RXR agonist specificity [2]: pan-agonist | EC50 [5]: 23 nM | EC50 [6]: 153 nM | EC50 [7]: > 1000 nM

C/C(=C\c1ccc(C(=O)O)cc1)c1cc2c(cc1C)C(C)(C)CCC2(C)C [Compound 2, reference compound]
EC50 [1, 10]: 448 nM | EC50 [5]: 101 nM | EC50 [6]: 364 nM | EC50 [7]: 3160 nM

C/C(=C\c1cc(C(=O)O)cs1)c1cc2c(cc1C)C(C)(C)CCC2(C)C [Compound 1, 2-[(E)-2-(5,6,7,8-tetrahydro-3,5,5,8,8-pentamethylnaphthalen-2-yl)propen-1-yl]thiophene-4-carboxylic acid]
cell morphology at 4 hours (HL-60 cdm-1 cells [8]; 4 hours): nuclear pyknosis and nuclear as well as cytoplasmic hyperchromicity with the formation of cytoplasmic extensions (large blobs) | cell morphology at 48 hours (HL-60 cdm-1 cells [8]; 48 hours): extensive cell death with numerous hyperchromatic nuclear fragments either free in the media or contained with shrunken cell remnants | cell morphology after 6 days (HL-60 cdm-1 cells [8]; 6 days): the same hyperchromatic nuclear remnants are detected but in addition there are scattered multinucleated syncitial cells | EC50 [1, 10]: 67 nM | RAR / RXR agonist specificity [2]: RXR specific agonist | EC50 [5]: 3350 nM | EC50 [6]: 1070 nM | cell counts (HL-60 cdm-1 cells [3]): 70000 mL⁻¹ | inspection of microscope slides (HL-60 cdm-1 cells [3]): extensive cell death, almost all cells died | DNA fragmentation (laddering) (HL-60 cdm-1 cells [9]): pattern of DNA fragmentation
